Test results as given in patent publication US20230293428A1, “Drug delivery via contact lenses and similar ophthalmic devices” (Colorado School of Mines, priority 2021, published 2023).
Counter-ions that a name gives are not always drawn.

Legend:
[1] = Partition coefficient of timolol maleate between contact lens and loading solution; format: physicochemical
Experimental: Timolol maleate was dissolved in PBS to prepare a 1.5 mg/mL solution. Each hydrated contact lens (both blank and vitamin E-loaded) was placed in 3 mL of this solution for 7 days to load the drug in the lenses.
The partition coefficient K of the drug is defined as the ratio of the concentration of the drug in the lens to the concentration of the drug in the medium when equilibrium is reached during the drug loading process. […] The concentration in the lens after 7 days of loading can be determined by dividing the total mass of the drug in the lens by the volume, and the mass of the drug can be determined from the release data based on the assumption that 100% of the drug is released due to the large volume of release medium compared to the lens volume. Therefore, the partition coefficient K is calculated as
where Clens and Cloading are the concentration of the drug in the lens and the loading solution at equilibrium, respectively, Vrelease and Vlens are the volume of the release medium and the contact lens, respectively, and Crelease is the final concentration of the drug in the release medium.

[2] = In vitro timolol release from drug-loaded contact lenses into PBS, fitted to Fick's diffusion (perfect sink) model; format: physicochemical
Experimental: After drug loading, the lenses were removed from the timolol maleate solution and gently wiped with KimWipe to remove the excess solution remaining on the surface. Each lens was then placed in 3 mL of fresh PBS solution for in vitro drug release. The optical absorption spectra of the release media were measured by the same spectrophotometer used in Example 2. The concentration of the timolol in the release medium was determined by fitting the optical absorption spectra in the range of 260 to 340 nm with the calibration spectrum of timolol maleate using MATLAB's minimization of least square error method. The drug release profiles were fitted using a perfect sink model to determine drug diffusivity. By solving the Fick's law diffusion equation, the mass percent of the drug released as a function of time is given by […] To further investigate this effect, the diffusion coefficients of timolol in the lenses were calculated by fitting the release curves to Fick's diffusion equation as described above. […] As Table 5 illustrates, the diffusion coefficients of timolol from these lenses are about a third of the diffusion coefficient from control (blank/unloaded) lenses (circular data points in FIG. 5), which results in extension of release by about 10 hours.

[3] = lens with 0 wt % vitamin E (blank), solvent n/a
[4] = lens with 8.4 wt % vitamin E, loaded from pure EtOH
[5] = lens with 8.6 wt % vitamin E, loaded from 75:25 EtOH:H2O
[6] = lens with 9.3 wt % vitamin E, loaded from 85:15 EtOH:H2O
[7] = lens with 19.3 wt % vitamin E, loaded from pure EtOH
[8] = lens with 19.9 wt % vitamin E, loaded from 85:15 EtOH:H2O
[9] = lenses with vitamin E loads of 8 to 10 wt %

K, partition coefficient of timolol maleate in contact lens [1, 3]: 0.7125 ± 0.0168
K, partition coefficient of timolol maleate in contact lens [1, 4]: 0.6050 ± 0.0171
K, partition coefficient of timolol maleate in contact lens [1, 5]: 0.6757 ± 0.0152
K, partition coefficient of timolol maleate in contact lens [1, 6]: 0.7969 ± 0.0242
K, partition coefficient of timolol maleate in contact lens [1, 7]: 0.5739 ± 0.0069
K, partition coefficient of timolol maleate in contact lens [1, 8]: 0.6108 ± 0.0489
D, diffusion coefficient of timolol maleate from contact lens [2, 3]: 2.04 · 10^−13 ± 0 m^2/s
D, diffusion coefficient of timolol maleate from contact lens [2, 4]: (7.42 ± 1.49) · 10^−14 m^2/s
D, diffusion coefficient of timolol maleate from contact lens [2, 5]: (6.20 ± 0.329) · 10^−14 m^2/s
D, diffusion coefficient of timolol maleate from contact lens [2, 6]: 5.09 · 10^−14 ± 0 m^2/s
D, diffusion coefficient of timolol maleate from contact lens [2, 7]: (1.62 ± 0.219) · 10^−14 m^2/s
D, diffusion coefficient of timolol maleate from contact lens [2, 8]: (13.2 ± 0.936) · 10^−15 m^2/s
diffusion coefficient of timolol relative to control (blank/unloaded) lenses [2, 9]: about a third
extension of timolol release versus control (blank) lenses [2, 9]: about 10 hours
timolol release time ([2]; lenses with vitamin E loads of 8 to 10 wt %, made from different loading solutions): about 12 hours
duration of timolol release ([2]; lenses with vitamin E loads of 19 to 20 wt %, two different solutions): more than 70 hours
duration of release of timolol from the lens ([2]; vitamin E loads of about 10 wt %): about 10 hours
duration of release of timolol from the lens ([2]; vitamin E loads of about 20 wt %): about 70 hours
SMILES: CC(C)(C)NC[C@H](O)COc1nsnc1N1CCOCC1 [timolol maleate, Timolol maleate]
